#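 Five concentrations, 48 hours, 96-well plates. GI50 marks 50% less growth.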 Active and inactive are the calls of the source. No stated cut-off is given here; in the data, active = GI50 up to about 1.1 µM and inactive = higher.
# Tests used:
# Assay in all cases: NCI-60 cell line screen, 48 h
# [1] = test system: 786-0
# [2] = test system: A498
# [3] = test system: A549
# [4] = test system: ACHN
# [5] = test system: BT-549
# [6] = test system: CAKI-1
# [7] = test system: CCRF-CEM
# [8] = test system: COLO 205
# [9] = test system: DU-145
# [10] = test system: EKVX
# [11] = test system: HCC 2998
# [12] = test system: HCT-116
# [13] = test system: HCT-15
# [14] = test system: HOP-62
# [15] = test system: HT-29
# [16] = test system: Hs-578T
# [17] = test system: IGROV-1
# [18] = test system: K562
# [19] = test system: KM12
# [20] = test system: M14
# [21] = test system: MCF7
# [22] = test system: MDA-MB-231
# [23] = test system: MDA-MB-435
# [24] = test system: MDA-N
# [25] = test system: MOLT-4
# [26] = test system: Malme-3M
# [27] = test system: NCI-H226
# [28] = test system: NCI-H23
# [29] = test system: NCI-H460
# [30] = test system: NCI-H522
# [31] = test system: NCI/ADR-RES
# [32] = test system: OVCAR-3
# [33] = test system: OVCAR-4
# [34] = test system: OVCAR-5
# [35] = test system: OVCAR-8
# [36] = test system: PC-3
# [37] = test system: RPMI-8226
# [38] = test system: RXF 393
# [39] = test system: SF-268
# [40] = test system: SF-295
# [41] = test system: SK-MEL-28
# [42] = test system: SK-MEL-2
# [43] = test system: SK-MEL-5
# [44] = test system: SK-OV-3
# [45] = test system: SN12C
# [46] = test system: SNB-19
# [47] = test system: SNB-75
# [48] = test system: SR
# [49] = test system: SW-620
# [50] = test system: T47D
# [51] = test system: TK-10
# [52] = test system: U-251
# [53] = test system: UACC-257
# [54] = test system: UACC-62
# [55] = test system: UO-31
smiles,measurement,setting,value
COC(=O)/C=C(/C)n1nc2ccccc2n1,GI50,[1],> 100 µM (inactive)
same,GI50,[2],77.3 µM (inactive)
same,GI50,[3],> 100 µM (inactive)
same,GI50,[4],> 100 µM (inactive)
same,GI50,[5],> 100 µM (inactive)
same,GI50,[6],> 100 µM (inactive)
same,GI50,[7],> 100 µM (inactive)
same,GI50,[8],> 100 µM (inactive)
same,GI50,[9],> 100 µM (inactive)
same,GI50,[10],37.7 µM (inactive)
same,GI50,[11],> 100 µM (inactive)
same,GI50,[12],> 100 µM (inactive)
same,GI50,[13],> 100 µM
same,GI50,[14],> 100 µM (inactive)
same,GI50,[15],> 100 µM (inactive)
same,GI50,[16],> 100 µM (inactive)
same,GI50,[17],> 100 µM (inactive)
same,GI50,[18],> 100 µM (inactive)
same,GI50,[19],> 100 µM (inactive)
same,GI50,[20],> 100 µM (inactive)
same,GI50,[21],> 100 µM (inactive)
same,GI50,[22],> 100 µM (inactive)
same,GI50,[23],> 100 µM (inactive)
same,GI50,[24],> 100 µM (inactive)
same,GI50,[25],> 100 µM (inactive)
same,GI50,[26],> 100 µM (inactive)
same,GI50,[27],> 100 µM (inactive)
same,GI50,[28],> 100 µM (inactive)
same,GI50,[29],> 100 µM (inactive)
same,GI50,[30],> 100 µM (inactive)
same,GI50,[31],> 100 µM (inactive)
same,GI50,[32],> 100 µM (inactive)
same,GI50,[33],> 100 µM (inactive)
same,GI50,[34],> 100 µM (inactive)
same,GI50,[35],> 100 µM (inactive)
same,GI50,[36],> 100 µM (inactive)
same,GI50,[37],22.4 µM (inactive)
same,GI50,[38],> 100 µM (inactive)
same,GI50,[39],> 100 µM (inactive)
same,GI50,[40],> 100 µM (inactive)
same,GI50,[41],> 100 µM (inactive)
same,GI50,[42],> 100 µM (inactive)
same,GI50,[43],> 100 µM (inactive)
same,GI50,[44],> 100 µM (inactive)
same,GI50,[45],> 100 µM (inactive)
same,GI50,[46],> 100 µM (inactive)
same,GI50,[47],> 100 µM (inactive)
same,GI50,[48],> 100 µM (inactive)
same,GI50,[49],> 100 µM (inactive)
same,GI50,[50],> 100 µM (inactive)
same,GI50,[51],> 100 µM (inactive)
same,GI50,[52],> 100 µM (inactive)
same,GI50,[53],> 100 µM (inactive)
same,GI50,[54],> 100 µM (inactive)
same,GI50,[55],> 100 µM (inactive)
